This note sets out measurements from US20240158370A1, “CK1 alpha AND DUAL CK1 alpha / GSPT1 DEGRADING COMPOUNDS” (Innovo Therapeutics, Inc., priority 2022, published 2024).

The target of one test is GSPT1 (Homo sapiens, UniProt P15170+Q96SW2). Briefly: HiBiT degradation assay, GSPT1, Procedure A. Format: cell-based. Also on record: HiBit-GSPT1 KI HEK293(LgBit) Cells; host or cells: HEK293(LgBit) knock-in cells. The method, then:
(§1) Compounds were spotted onto Cornin 384-Well, Cell Culture-Treated, Flat-Bottom, Low Flange Microplate (Fisher Scientific, Catalog #07-201-013) using a Tecan D300e digital dispenser. Ten-point dose response curves spanning from 10 μM to 0.005 μM with a 0.1% DMSO tolerance were used.
(§2) Cells were dissociated from tissue 182 cm^2 Tissue Culture Flask (CellTreat Catalog #229351) by washing the cells with PBS (Fisher Scientific Catalog #BP3994) followed by dissociation with Trypsin-EDTA (0.25%) (Thermo Scientific Catalog #25200056). Trysin was neutralized and cells were resuspended with DMEM+10% FBS. Cells were centrifuged for 5 minutes at 1200 RPMs. Cell culture media was aspirated off and cells were resuspended with DMEM+10% FBS. Cell density was determined using a Denovix CellDrop BF cell counter. Cell density was adjusted to 1×10^6 cells/ml. 40 μl of cells was added to compound treated tissue culture plates and incubated for six hours at 37° C. After six hours, cell culture plates were removed from tissue culture incubator and cooled to room temperature. 40 μl of Nano-GloHiBiT Lytic Detection Reagent (Promega, Catalog #N3040) was added to each well. Plates were placed on an orbital shaker (600 rpm) for 20 minutes. Luminescence was measured using an Envsion plate reader (Perkin Elmer). DC50 curves and Ymin were generated using a 4-parameter curve fit with GraphPad Prism software (Prism Corporation).
(§3) Results from the HiBiT assay (DC50 (nM) and Ymin (% remaining)) are shown below. All CK1α data was generated according to Procedure A. GSPT1 data for Examples 1-600, 603-620 and 703-705 was generated according to Procedure A. GSPT1 data for Examples 601, 621-702 and 706-735 was generated according to Procedure B.
In general terms: The HiBiT peptide binds its large partner to form an active luciferase.

The target in a further test is T1, CK1α (Homo sapiens, UniProt P48729+Q96SW2).
T1 construct: CSNK1A1-HiBit KI HEK293(LgBit) Cells; host or cells: HEK293(LgBit) knock-in cells
Briefly: HiBiT degradation assay, CK1α, Procedure A. The format is cell-based. As for the experimental part:
as §1, §2, §3

T1 sequence (P48729 whole entry): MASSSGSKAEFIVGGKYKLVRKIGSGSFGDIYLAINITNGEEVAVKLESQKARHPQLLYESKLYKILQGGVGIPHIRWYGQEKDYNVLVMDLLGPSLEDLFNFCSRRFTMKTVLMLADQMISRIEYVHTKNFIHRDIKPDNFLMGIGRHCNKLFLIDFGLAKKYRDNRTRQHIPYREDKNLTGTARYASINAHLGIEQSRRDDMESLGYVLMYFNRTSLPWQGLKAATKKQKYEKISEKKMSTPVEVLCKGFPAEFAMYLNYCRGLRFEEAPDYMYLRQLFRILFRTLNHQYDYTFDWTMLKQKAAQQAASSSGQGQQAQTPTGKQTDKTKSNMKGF
T1 sequence (Q96SW2 whole entry): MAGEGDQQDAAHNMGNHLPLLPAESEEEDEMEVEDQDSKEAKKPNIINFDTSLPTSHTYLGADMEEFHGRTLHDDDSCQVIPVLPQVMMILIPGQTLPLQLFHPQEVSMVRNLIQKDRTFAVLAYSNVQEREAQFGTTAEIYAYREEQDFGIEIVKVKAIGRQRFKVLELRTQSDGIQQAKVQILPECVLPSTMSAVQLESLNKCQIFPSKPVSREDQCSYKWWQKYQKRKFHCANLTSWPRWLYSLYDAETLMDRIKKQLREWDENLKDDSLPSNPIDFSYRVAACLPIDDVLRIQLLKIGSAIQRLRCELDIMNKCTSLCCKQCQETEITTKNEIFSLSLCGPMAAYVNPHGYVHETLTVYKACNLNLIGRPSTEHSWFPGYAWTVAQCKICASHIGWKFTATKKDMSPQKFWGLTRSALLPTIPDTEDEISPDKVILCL
T1 sequence (Q16531 whole entry partner): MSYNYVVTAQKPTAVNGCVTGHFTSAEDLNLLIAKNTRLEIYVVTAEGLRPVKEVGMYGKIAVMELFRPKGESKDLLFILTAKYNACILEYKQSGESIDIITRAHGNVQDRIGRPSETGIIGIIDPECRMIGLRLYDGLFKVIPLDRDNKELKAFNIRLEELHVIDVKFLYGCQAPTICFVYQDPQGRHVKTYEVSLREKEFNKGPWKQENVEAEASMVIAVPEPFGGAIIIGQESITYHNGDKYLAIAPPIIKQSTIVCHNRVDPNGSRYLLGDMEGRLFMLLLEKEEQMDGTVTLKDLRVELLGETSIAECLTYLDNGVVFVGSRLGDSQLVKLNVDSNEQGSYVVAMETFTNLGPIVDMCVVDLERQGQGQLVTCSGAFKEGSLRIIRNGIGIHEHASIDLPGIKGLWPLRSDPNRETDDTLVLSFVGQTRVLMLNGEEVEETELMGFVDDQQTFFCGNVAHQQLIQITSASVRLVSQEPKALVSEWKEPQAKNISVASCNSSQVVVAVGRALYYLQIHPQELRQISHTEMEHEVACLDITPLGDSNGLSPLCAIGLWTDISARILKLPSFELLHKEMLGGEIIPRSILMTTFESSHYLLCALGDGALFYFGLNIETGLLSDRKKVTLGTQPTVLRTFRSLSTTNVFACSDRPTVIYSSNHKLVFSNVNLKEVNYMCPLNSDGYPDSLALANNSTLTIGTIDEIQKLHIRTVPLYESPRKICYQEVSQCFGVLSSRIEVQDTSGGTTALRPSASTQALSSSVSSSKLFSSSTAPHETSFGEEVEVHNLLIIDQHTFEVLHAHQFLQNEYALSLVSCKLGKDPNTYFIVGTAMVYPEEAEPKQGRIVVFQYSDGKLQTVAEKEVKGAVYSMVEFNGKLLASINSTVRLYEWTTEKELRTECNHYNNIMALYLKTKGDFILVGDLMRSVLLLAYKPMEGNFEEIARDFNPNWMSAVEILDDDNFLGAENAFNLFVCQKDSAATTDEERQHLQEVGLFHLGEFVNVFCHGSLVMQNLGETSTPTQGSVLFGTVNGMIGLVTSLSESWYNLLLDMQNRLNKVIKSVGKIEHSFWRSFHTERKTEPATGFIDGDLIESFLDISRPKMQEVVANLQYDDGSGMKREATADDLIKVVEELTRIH
Chain of GSPT1 (P15170 whole entry): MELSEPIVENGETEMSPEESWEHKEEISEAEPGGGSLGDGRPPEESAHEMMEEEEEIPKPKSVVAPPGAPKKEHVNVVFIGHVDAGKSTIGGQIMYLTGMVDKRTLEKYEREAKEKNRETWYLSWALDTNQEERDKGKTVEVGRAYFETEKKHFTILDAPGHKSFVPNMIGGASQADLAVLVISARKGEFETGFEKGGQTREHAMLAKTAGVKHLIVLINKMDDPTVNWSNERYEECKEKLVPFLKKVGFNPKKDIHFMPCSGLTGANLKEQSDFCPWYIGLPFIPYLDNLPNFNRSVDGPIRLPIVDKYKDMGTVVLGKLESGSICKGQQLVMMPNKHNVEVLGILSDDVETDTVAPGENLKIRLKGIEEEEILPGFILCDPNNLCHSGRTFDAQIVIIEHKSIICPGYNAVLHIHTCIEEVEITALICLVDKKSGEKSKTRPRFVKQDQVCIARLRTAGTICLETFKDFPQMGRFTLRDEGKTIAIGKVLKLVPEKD
Chain of GSPT1 (Q96SW2 whole entry): as the sequence (Q96SW2 whole entry) above
Chain of GSPT1 (Q16531 whole entry partner): as the sequence (Q16531 whole entry partner) above

On to `Cn1cnc(-c2ccc3c(c2)CN(C2CCC(=O)NC2=O)C3=O)c1-c1ccccc1F` (centres unmarked) [Example 164], for which, at GSPT1 (six hours incubation), the DC50 (as a rule, the concentration giving 50% degradation) is below 25 nM and the “GSPT1 Ymin” value is given as “E (E = >25-75% remaining)”. In addition, at CK1α (six hours incubation), the “CK1α Ymin” value is given as “C (C = 0-10% remaining)” and the DC50 was below 25 nM.

For the molecule `Cc1ccc(-c2c(-c3ccc4c(c3)CN(C3CCC(=O)NC3=O)C4=O)cnn2C)cc1F` (centres unmarked) [Example 151], at GSPT1 (six hours incubation), the DC50 was at least 25 nM and the “GSPT1 Ymin” value was “F (F = >75-100% remaining)”. Also, at CK1α (six hours incubation), the “CK1α Ymin” value was “E (E = >25-75% remaining)” and the DC50 is below 25 nM.

Consider `O=C1CCC(N2Cc3cc(-c4cn(CC(F)(F)F)nc4-c4ccccc4)ccc3C2=O)C(=O)N1` (centres unmarked) [Example 427, 3-(1-oxo-5-(3-phenyl-1-(2,2,2-trifluoroethyl)-1H-pyrazol-4-yl)isoindolin-2-yl)piperidine-2,6-dione], for which, at GSPT1 (six hours), the DC50 is at least 25 nM and the “GSPT1 Ymin” value is “F (F = >75-100% remaining)”. In addition, on CK1α (six hours), the “CK1α Ymin” value was “C (C = 0-10% remaining)” and the half-maximal degradation concentration (DC50) was below 25 nM.

As for `Cn1ncc(-c2ccc3c(c2)CN(C2CCC(=O)NC2=O)C3=O)c1-c1ccc(OC(F)F)cc1` (centres unmarked) [Example 416, 3-(5-(5-(4-(difluoromethoxy)phenyl)-1-methyl-1H-pyrazol-4-yl)-1-oxoisoindolin-2-yl)piperidine-2,6-dione], on GSPT1 (six hours), the DC50 was at least 25 nM and the “GSPT1 Ymin” value is “F (F = >75-100% remaining)”. Moreover, on CK1α (six hours), the “CK1α Ymin” value is “E (E = >25-75% remaining)” and the DC50 was below 25 nM.

With `Cn1cc(-c2ccc3c(c2)CN(C2CCC(=O)NC2=O)C3=O)nc1-c1cc(F)cc(F)c1` (centres unmarked) [Example 555], at GSPT1 (six hours), the 50% degradation concentration (DC50) is at least 25 nM and the “GSPT1 Ymin” value is on record as “F (F = >75-100% remaining)”. For the same molecule, at CK1α (six hours), the “CK1α Ymin” value was “C (C = 0-10% remaining)” and the DC50 was below 25 nM.

For the molecule `Cc1cccc(C)c1-c1c(-c2ccc3c(c2)CN(C2CCC(=O)NC2=O)C3=O)ncn1C` (centres unmarked) [Example 442], on GSPT1 (six hours), the DC50 is at least 25 nM and the “GSPT1 Ymin” value is reported as “F (F = >75-100% remaining)”. Moreover, at CK1α (six hours), the “CK1α Ymin” value was “E (E = >25-75% remaining)” and the DC50 was below 25 nM.

As to `Cn1ncc(-c2ccc3c(c2)CN(C2CCC(=O)NC2=O)C3=O)c1-c1ccnnc1` (centres unmarked) [Example 450], at GSPT1 (six hours), the half-maximal degradation concentration (DC50) is at least 25 nM and the “GSPT1 Ymin” value was “F (F = >75-100% remaining)”. On CK1α (six hours), the “CK1α Ymin” value was “F (F = >75-100% remaining)” and the half-maximal degradation concentration (DC50) is at least 25 nM.

For `Cn1cnc(-c2ccc3c(c2)CN(C2CCC(=O)NC2=O)C3=O)c1-c1ccc(OCc2ccccc2)c(Cl)c1` (centres unmarked) [Example 304], at GSPT1 (six hours incubation), the DC50 was below 25 nM and the “GSPT1 Ymin” value was “F (F = >75-100% remaining)”. Further, on CK1α (six hours incubation), the “CK1α Ymin” value was “D (D = >10- 25% remaining)” and the 50% degradation concentration (DC50) was below 25 nM.

As for `Cc1cc(-c2c(-c3ccc4c(c3)CN(C3CCC(=O)NC3=O)C4=O)ncn2C)ccc1Cl` (centres unmarked) [Example 200], at GSPT1 (six hours incubation), the DC50 was below 25 nM and the “GSPT1 Ymin” value is “E (E = >25-75% remaining)”. On CK1α (six hours incubation), the “CK1α Ymin” value is recorded as “D (D = >10- 25% remaining)” and the DC50 was below 25 nM.

Take `CN1CCN(c2cccc(-c3c(-c4ccc5c(c4)CN(C4CCC(=O)NC4=O)C5=O)ncn3C)c2)CC1` (centres unmarked) [Example 408]: at GSPT1 (six hours), the half-maximal degradation concentration (DC50) was at least 25 nM. Moreover, on CK1α (six hours), the “CK1α Ymin” value is on record as “E (E = >25-75% remaining)” and the DC50 was below 25 nM.

As for `Cn1cnc(-c2ccc3c(c2)CN(C2CCC(=O)NC2=O)C3=O)c1-c1ccc(O)cc1` (centres unmarked) [Example 163], on GSPT1 (six hours incubation), the DC50 is at least 25 nM and the “GSPT1 Ymin” value is “E (E = >25-75% remaining)”. Also, on CK1α (six hours incubation), the “CK1α Ymin” value was “C (C = 0-10% remaining)” and the DC50 is below 25 nM.

Take `[2H]C([2H])([2H])n1ncc(-c2ccc3c(c2)CN(C2CCC(=O)NC2=O)C3=O)c1-c1ccc(OC)cc1` (centres unmarked) [Example 433, 3-(5-(5-(4-methoxyphenyl)-1-(methyl-d3)-1H-pyrazol-4-yl)-1-oxoisoindolin-2-yl) piperidine-2,6-dione]: at GSPT1 (six hours), the DC50 is at least 25 nM and the “GSPT1 Ymin” value was “F (F = >75-100% remaining)”. Besides, on CK1α (six hours), the “CK1α Ymin” value was “C (C = 0-10% remaining)” and the DC50 was below 25 nM.

On to `Cn1cnc(-c2ccc3c(c2)CN(C2CCC(=O)NC2=O)C3=O)c1-c1cnc(N)nc1` (centres unmarked) [Example 485], for which, on GSPT1 (six hours), the DC50 is at least 25 nM and the “GSPT1 Ymin” value is on record as “F (F = >75-100% remaining)”. Further, at CK1α (six hours), the “CK1α Ymin” value is “E (E = >25-75% remaining)” and the half-maximal degradation concentration (DC50) is at least 25 nM.

On to `CN(C)C(=O)c1cccc(-c2c(-c3ccc4c(c3)CN(C3CCC(=O)NC3=O)C4=O)cnn2C)c1` (centres unmarked) [Example 140], for which, at GSPT1 (six hours incubation), the DC50 is below 25 nM and the “GSPT1 Ymin” value is given as “E (E = >25-75% remaining)”. In addition, at CK1α (six hours incubation), the “CK1α Ymin” value was “E (E = >25-75% remaining)” and the DC50 was at least 25 nM.

On to `O=C1CCC(N2Cc3cc(-c4cnn(CC(F)(F)F)c4-c4ccccc4)ccc3C2=O)C(=O)N1` (centres unmarked) [Example 208, 3-(1-Oxo-5-(5-phenyl-1-(2,2,2-trifluoroethyl)-1H-pyrazol-4-yl)isoindolin-2-yl)piperidine-2,6-dione], for which, at GSPT1 (six hours incubation), the half-maximal degradation concentration (DC50) was at least 25 nM and the “GSPT1 Ymin” value is reported as “F (F = >75-100% remaining)”. In addition, at CK1α (six hours incubation), the “CK1α Ymin” value was “D (D = >10- 25% remaining)” and the DC50 was below 25 nM.

For the molecule `O=C1CCC(N2Cc3cc(-c4c[nH]nc4-c4ccccn4)ccc3C2=O)C(=O)N1` (centres unmarked) [Example 118, 3-(1-oxo-5-(3-(pyridin-2-yl)-1H-pyrazol-4-yl)isoindolin-2-yl)piperidine-2,6-dione], at GSPT1 (six hours incubation), the DC50 was at least 25 nM and the “GSPT1 Ymin” value is “F (F = >75-100% remaining)”. Further, at CK1α (six hours incubation), the “CK1α Ymin” value is “E (E = >25-75% remaining)” and the DC50 is at least 25 nM.

Turning to `COc1ccc(-c2nc(-c3ccc4c(c3)CN(C3CCC(=O)NC3=O)C4=O)cn2C)cc1` (centres unmarked) [Example 557], on GSPT1 (six hours), the 50% degradation concentration (DC50) was at least 25 nM and the “GSPT1 Ymin” value is given as “F (F = >75-100% remaining)”. At CK1α (six hours), the “CK1α Ymin” value is “C (C = 0-10% remaining)” and the DC50 is below 25 nM.

Regarding `CN(C)C(=O)c1cccc(-c2c(-c3ccc4c(c3)CN(C3CCC(=O)NC3=O)C4=O)ncn2C)c1` (centres unmarked) [Example 290], on GSPT1 (six hours incubation), the DC50 is at least 25 nM and the “GSPT1 Ymin” value is on record as “F (F = >75-100% remaining)”. Besides, on CK1α (six hours incubation), the “CK1α Ymin” value was “D (D = >10- 25% remaining)” and the half-maximal degradation concentration (DC50) was at least 25 nM.

As to `CN1CCN(C(=O)c2cccc(-c3c(-c4ccc5c(c4)CN(C4CCC(=O)NC4=O)C5=O)ncn3C)c2)CC1` (centres unmarked) [Example 357], on GSPT1 (six hours incubation), the DC50 was at least 25 nM and the “GSPT1 Ymin” value is “F (F = >75-100% remaining)”. On CK1α (six hours incubation), the “CK1α Ymin” value was “C (C = 0-10% remaining)” and the DC50 was below 25 nM.

For the molecule `Cn1ncc(-c2ccc3c(c2)CN(C2CCC(=O)NC2=O)C3=O)c1-c1ccc2ncsc2c1` (centres unmarked) [Example 393], at GSPT1 (six hours), the DC50 is at least 25 nM and the “GSPT1 Ymin” value is given as “F (F = >75-100% remaining)”. For the same molecule, at CK1α (six hours), the “CK1α Ymin” value is “D (D = >10- 25% remaining)” and the half-maximal degradation concentration (DC50) was below 25 nM.

For the molecule `Cc1nn(C)cc1-c1c(-c2ccc3c(c2)CN(C2CCC(=O)NC2=O)C3=O)cnn1C` (centres unmarked) [Example 373], at GSPT1 (six hours incubation), the DC50 is at least 25 nM and the “GSPT1 Ymin” value was “F (F = >75-100% remaining)”. On CK1α (six hours incubation), the “CK1α Ymin” value is given as “E (E = >25-75% remaining)” and the DC50 is at least 25 nM.

As for `Cc1noc(-c2ccccc2)c1-c1ccc2c(c1)CN(C1CCC(=O)NC1=O)C2=O` (centres unmarked) [Example 29, 3-(5-(3-Methyl-5-phenylisoxazol-4-yl)-1-oxoisoindolin-2-yl)piperidine-2,6-dione], on GSPT1 (six hours incubation), the DC50 is at least 25 nM and the “GSPT1 Ymin” value is reported as “F (F = >75-100% remaining)”. Besides, at CK1α (six hours incubation), the “CK1α Ymin” value is “F (F = >75-100% remaining)” and the DC50 is at least 25 nM.

In the case of `O=C1CCC(N2Cc3cc(-n4nccc4-c4ccccc4)ccc3C2=O)C(=O)N1` (centres unmarked) [Example 33, 3-(1-Oxo-5-(5-phenyl-1H-pyrazol-1-yl)isoindolin-2-yl)piperidine-2,6-dione], on GSPT1 (six hours incubation), the half-maximal degradation concentration (DC50) is at least 25 nM and the “GSPT1 Ymin” value is reported as “E (E = >25-75% remaining)”. At CK1α (six hours incubation), the “CK1α Ymin” value is reported as “E (E = >25-75% remaining)” and the DC50 is below 25 nM.

`O=C1CCC(N2Cc3cc(-c4nc(C(F)(F)F)[nH]c4-c4ccccc4)ccc3C2=O)C(=O)N1` (centres unmarked) [Example 53, 3-(1-Oxo-5-(5-phenyl-2-(trifluoromethyl)-1H-imidazol-4-yl)isoindolin-2-yl)piperidine-2,6-dione]: on GSPT1 (six hours incubation), the 50% degradation concentration (DC50) was at least 25 nM and the “GSPT1 Ymin” value was “E (E = >25-75% remaining)”. In addition, at CK1α (six hours incubation), the “CK1α Ymin” value is given as “C (C = 0-10% remaining)” and the DC50 is below 25 nM.
